Assay results reported in patent US20260008758A1, “LINEAR DIPEPTIDYL PEPTIDASE 1 INHIBITORS AND USES THEREOF” (Insmed Incorporated, priority 2024, published 2026).

Tests used:
human DPP1 enzyme = human DPP1 enzyme (Homo sapiens (Human), UniProt P53634); assay: Human DPP1 enzyme IC50 assay; format: biochemical; settings: recombinant human DPP1, H-Gly-Arg-AMC substrate 400 μM
How it was run: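 Fluorogenic readout (350/450 nm, every 5 min over 90 min, 37°C) of H-Gly-Arg-AMC cleavage at 400 μM final substrate. Compounds met activated DPP1 first for a 10-min 37°C pre-incubation in MES buffer pH 6.0 with DTT, 1% DMSO final. Four-parameter sigmoidal fit gave IC50.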

active mouse DPP1 enzyme = active mouse DPP1 enzyme (Mus musculus (Mouse), UniProt P97821); assay: Mouse DPP1 enzyme IC50 assay; format: biochemical; settings: active mouse DPP1, H-Gly-Arg-AMC substrate 400 μM
Chain of active mouse DPP1 enzyme (P97821 25-134): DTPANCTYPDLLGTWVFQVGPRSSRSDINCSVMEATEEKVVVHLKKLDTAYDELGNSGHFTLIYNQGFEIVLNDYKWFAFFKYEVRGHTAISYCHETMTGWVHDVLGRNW
Chain of active mouse DPP1 enzyme (P97821 231-393): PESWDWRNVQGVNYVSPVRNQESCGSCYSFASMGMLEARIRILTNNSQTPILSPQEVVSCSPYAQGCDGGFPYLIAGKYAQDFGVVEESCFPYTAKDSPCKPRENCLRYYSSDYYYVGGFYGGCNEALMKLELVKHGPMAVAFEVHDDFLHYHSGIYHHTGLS
Chain of active mouse DPP1 enzyme (P97821 394-462): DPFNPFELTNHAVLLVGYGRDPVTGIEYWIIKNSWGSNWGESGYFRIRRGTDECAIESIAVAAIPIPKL
Protocol: 25 μL of compound in Assay Buffer plus 5% DMSO was first added to 50 μL of active mouse DPP1 enzyme at a concentration of 62.5 pg/μL and allowed to pre-incubate for 10 minutes at 37° C. after which 50 μL of 1000 μM H-Gly-Arg-AMC substrate (Bachem; St. Torrance, CA) was added, giving final substrate concentration of 400 μM and a final DMSO concentration of 1%. Substrate cleavage was measured for 90 minutes at 37° C., with fluorescence at Excitation/Emission 350/450 nm measured every 5 minutes. DPP1 concentration was interpolated based on its activity relative to a standard curve of recombinant active mouse DPP1 enzyme. IC50 values for each compound were calculated via the XLFit (IDBS Version 5.3.1.3) Add-On to Microsoft Excel using the four parameter fit equation y=(A+((B-A)/(1+((C/x)^D)))), which appears as equation number 205 (4 Parameter Logistic Model or Sigmoidal Dose-Response Model) in XLFit. Default constraints were used for each Parameter.

DPP1 in HL-60 cells = DPP1 in HL-60 cells (Homo sapiens (Human), UniProt P53634); assay: DPP1 Cell IC50 assay; format: cell-based; settings: H-Gly-Phe-AFC substrate, 60 min pre-incubation
Chain of DPP1 in HL-60 cells (P53634 25-134): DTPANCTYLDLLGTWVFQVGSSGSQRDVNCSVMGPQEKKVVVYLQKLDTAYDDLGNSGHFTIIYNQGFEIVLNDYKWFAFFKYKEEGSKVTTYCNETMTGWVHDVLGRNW
Chain of DPP1 in HL-60 cells (P53634 231-394): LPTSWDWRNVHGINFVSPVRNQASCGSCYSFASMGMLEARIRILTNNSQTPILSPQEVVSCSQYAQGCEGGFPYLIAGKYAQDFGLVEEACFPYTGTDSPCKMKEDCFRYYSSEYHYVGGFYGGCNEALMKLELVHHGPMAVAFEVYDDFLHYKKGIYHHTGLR
Chain of DPP1 in HL-60 cells (P53634 395-463): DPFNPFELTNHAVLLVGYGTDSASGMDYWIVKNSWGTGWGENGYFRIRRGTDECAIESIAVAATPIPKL
How it was run: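 HL-60 cells (5×10^5 live cells/mL in PBS) were pre-incubated with compound in 0.5% DMSO for 60 min at 37 °C, 5% CO2, with shaking, then given 500 μM H-Gly-Phe-AFC solution for 30 min. Fluorescence was read at 400/505 nm. % inhibition was taken against vehicle wells, and IC50 came from a four-parameter logistic fit.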

Chain of human DPP1 enzyme (P53634 25-134): as the sequence (P53634 25-134) above
Chain of human DPP1 enzyme (P53634 231-394): as the sequence (P53634 231-394) above
Chain of human DPP1 enzyme (P53634 395-463): as the sequence (P53634 395-463) above

| IC50 (human DPP1 enzyme) [nM] | IC50 (active mouse DPP1 enzyme) [nM] | IC50 (DPP1 in HL-60 cells) [nM] | SMILES |
| --- | --- | --- | --- |
| ≥ 15 | 5 to 20 | ≥ 2.5 | CN(C)C[C@H](O)C(=O)N[C@H](C#N)Cc1ccc(-c2ccc3oc(=O)n(CCN4CCOCC4)c3c2)cc1 [Compound 140, (2S)—N-[(1S)-1-cyano-2-(4-{3-[2-(morpholin-4-yl)ethyl]-2-oxo-1,3-benzoxazol-5-yl}phenyl)ethyl]-3-(dimethylamino)-2-hydroxypropanamide] |
| ≥ 15 | ≥ 20 | ≥ 2.5 | C=CC[C@@H](N)CC(=O)N[C@H](C#N)Cc1ccc(-c2ccc3oc(=O)n(C)c3c2)cc1 [Compound 165, (3R)-3-amino-N-[(1S)-1-cyano-2-[4-(3-methyl-2-oxo-2,3-dihydro-1,3-benzoxazol-5-yl)phenyl]ethyl]hex-5-enamide] |
| ≥ 15 | ≥ 20 | ≥ 2.5 | C=CCC(CN)C(=O)N[C@H](C#N)Cc1ccc(-c2ccc3oc(=O)n(C)c3c2)cc1 (stereo partly drawn) [Compound 167, 2-(aminomethyl)-N-[(1S)-1-cyano-2-[4-(3-methyl-2-oxo-2,3-dihydro-1,3-benzoxazol-5-yl)phenyl]ethyl]pent-4-enamide] |
| ≥ 15 | ≥ 20 | ≥ 2.5 | N#Cc1ccc(-c2ccc(C[C@@H](C#N)NC(=O)C3(N)CCOCC3)c(I)c2)cc1 [Compound 248, 4-amino-N-[(1S)-1-cyano-2-{4′-cyano-3-iodo-[1,1′-biphenyl]-4-yl}ethyl]oxane-4-carboxamide] |
| 5 to 15 | 5 to 20 | ≤ 1 | CN(C)C[C@H](O)C(=O)N[C@H](C#N)Cc1ccc(-c2ccc3oc(=O)n(C)c3c2)cc1F [Compound 138, (2S)—N-[(1S)-1-cyano-2-[2-fluoro-4-(3-methyl-2-oxo-1,3-benzoxazol-5-yl)phenyl]ethyl]-3-(dimethylamino)-2-hydroxypropanamide] |
| ≥ 15 | ≥ 20 | ≥ 2.5 | CC(C)C(N)CC(=O)N[C@H](C#N)Cc1ccc(-c2ccc3oc(=O)n(C)c3c2)cc1 (stereo partly drawn) [Compound 164, 3-amino-N-[(1S)-1-cyano-2-[4-(3-methyl-2-oxo-2,3-dihydro-1,3-benzoxazol-5-yl)phenyl]ethyl]-4-methylpentanamide] |
